What is called LD50 is the dose expected to kill half of the subjects tested. Read a high LD50 as lower toxicity.

Structures are written as SMILES.

Series [1] addresses T1, partially purified β-lactamase PCI (Staphylococcus aureus, UniProt P00807).
T1 construct: partially purified β-lactamases from Escherichia coli (either TEM or RPI), Klebsiella aerogenes (K1) and Staphylococcus aureus (PCI); endogenous in cells; host or cells: Staphylococcus aureus (PCI), enzyme partially purified from the producing bacterium
In words: β-Lactamase inhibition (hydrolysis of ampicillin). The format is biochemical. The note with it: ampicillin sodium 500 µg/ml, 37°C, pH7, read-out: μg/ml of compound giving 50% inhibition of hydrolysis of ampicillin (converted). The protocol: (§1) The compounds have been tested for their inhibitory activity against partially purified β-lactamases from Escherichia coli (either TEM or RPI), Klebsiella aerogenes (K1) and Staphylococcus aureus (PCI). The substrate used was ampicillin sodium.
(§2) Ampicillin sodium at a concentration of 500 µg/ml was reacted with the enzyme at 37°C and pH7. The enzyme concentration was such as to destroy all the ampicillin within 10 minutes. The reaction was followed spectrophotometrically by observing the loss of absorption at 238 nm. Concentrations of the compound were added to inhibit the reaction, and the I5O value represents µg/ml of compound halving the initial velocity of hydrolysis of ampicillin.

The target in series [2] is partially purified β-lactamase K1. In words: β-Lactamase inhibition (hydrolysis of ampicillin). It is filed as biochemical. The conditions noted are these: β-lactamase KI; ampicillin sodium 500 µg/ml, 37°C, pH7. The protocol:
as §1, §2

The test system of series [3] is Staph. aureus 853E. In words: Synergy testing with amoxycillin (MIC, agar dilution). It is filed as cell-based. The conditions noted are these: in the presence of 1µg/ml of compound. An excerpt:
(§3) Serial two-fold dilutions of freshly prepared test solution were made into Oxoid No. 1 Nutrient agar with or without added enrichment and poured into petri dishes. Plates were innoculated with a multipoint innoculator with innoculum containing approximately 10^5 colony forming units of the organisms shown in Table 1, all of which are clinical isolates.
(§4) Method as for 1, incorporating amoxycillin in serial two-fold dilutions along with a sub-inhibitory, fixed concentration of the test clavulanic acid derivative, as shown in the Table. All of the organisms are clinical isolates.
On the technique in general: In agar dilution the substance is mixed into plates at graded concentrations.

In series [4] the test system is Pr. rettgeri 1356E. Described as above. The format is cell-based.
Description: as §3, §4

Series [5] concerns K. aerogenes 1963E. Described as above. It is filed as cell-based.
Description: as §3, §4

In series [6] the test system is E. coli (TEM^+) 1193E. The description is as above. It is filed as cell-based.
Description: as §3, §4

Series [7] in a line: Toxicity in mice. The conditions noted are these: mouse, in vivo, ip; administered intraperitoneally to mice.
In series [8] the test system is K. aerogenes 1522E. Put plainly: Minimum Inhibitory Concentration (MIC), agar dilution. The format is cell-based. The note with it: 18 hours at 37°C.
Description: as §3

In series [9] the test system is E. cloacae 1321E. The description is as above. The format is cell-based. The note with it: 18 hours at 37°C.
Description: as §3

The test system of series [10] is Staph. aureus 853E. Described as above. It is filed as cell-based. The conditions noted are these: Staph. aureus 853E; 18 hours at 37°C.
Description: as §3

For series [11], the system named is H. influenzae 1184E. Described as above. The conditions noted are these: 18 hours at 37°C. It is filed as cell-based.
Description: as §3

The test system of series [12] is E. cloacae 1051E. The series is described as above. It is filed as cell-based. The note with it: 18 hours at 37°C.
Description: as §3

Series [13] relates to S. marcescens 1324E. The series is described as above. The conditions noted are these: 18 hours at 37°C. It is filed as cell-based.
Description: as §3

Series [14] has as its system E. coli 851E. The description is as above. The format is cell-based. The note with it: 18 hours at 37°C.
Description: as §3

Series [15] relates to Micrococcus SP 1810E. The description is as above. The format is cell-based. The conditions noted are these: 18 hours at 37°C.
Description: as §3

Where [16] appears, read: in the presence of 1µg/ml of compound.
Where [17] appears, read: in the presence of 4µg/ml of compound.

T1 sequence (P00807 25-281): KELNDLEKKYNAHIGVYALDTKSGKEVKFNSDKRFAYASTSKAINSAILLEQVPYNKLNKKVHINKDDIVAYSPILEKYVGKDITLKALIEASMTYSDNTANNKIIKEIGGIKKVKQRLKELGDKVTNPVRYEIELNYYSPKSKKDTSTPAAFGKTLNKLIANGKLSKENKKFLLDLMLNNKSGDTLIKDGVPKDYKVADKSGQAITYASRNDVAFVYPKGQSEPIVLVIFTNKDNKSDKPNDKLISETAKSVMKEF

With `CNC(=O)c1cn(C/C=C2\O[C@@H]3CC(=O)N3[C@H]2C(=O)O)nn1` [Example 14, Sodium (3R,5R.Z)-2-{2-[4-(N-methylcarbamoyl)-1.2.3-triazol-1-yl]-ethylidene}-clavam-3-carboxylate], in series [1], the IC50 was 2.18 µM. Besides, the “μg/ml of compound giving 50% inhibition of hydrolysis of ampicillin” value in series [2] was 0.7 µg/mL. The MIC of amoxycillin in series [3] is less than 0.1 mg/L; in series [4] (setting [16]), 8 mg/L; in [4] (setting [17]) it was 1 mg/L; in series [5] (setting [16]) it was 8 mg/L; in series [5] (setting [17]), 0.2 mg/L; in series [6] (setting [16]) it was 62 mg/L. In series [6] (setting [17]), the MIC of amoxycillin is 4 mg/L. In addition, the LD50 in series [7] is greater than 500 mg/kg. Besides, the “MIC (agar dilution) of compound” value in series [8] came to 16 mg/L; in [9] it was 16 mg/L; in [10] it was 1 mg/L; in [11] it was 31 mg/L; in [12], 16 mg/L; in [13], 31 mg/L. Moreover, the “MIC (agar dilution) of compound” value was determined as 8 mg/L in series [14] and 1 mg/L in [15].
